Experiment: In vivo stability: half-life for blood clearance after intravenous injection, venous blood analysed by LC-MS/MS
Settings: i.v. 1-10 mg/kg, male Sprague-Dawley rats; for t1/2 (dihydro), half-life for blood clearance: corresponding dihydro-derivative formed spontaneously in vivo from the injected tetrahydro-compound, venous blood; for t1/2 (tetrahydro), half-life for blood clearance: injected tetrahydro-compound, venous blood up to eight hours
Method: The compounds 4-N-cyclohexylmethylamino-5,6,7,8-tetrahydrobiopterin (compound A), 2-amino-4-piperidino-6-phenyl-(R,S)-5,6,7,8-tetrahydropteridin (compound B) and 2-amino-4-di-n-propylamino-6-(4-methoxyphenyl)-(R,S)-5,6,7,8-tetrahydropteridin (compound C) were intravenously injected into male Sprague-Dawley rats (1-10 mg/kg). Venous blood samples were taken up to eight hours after the injections and analyzed for the injected tetrahydro-compounds and for their corresponding dihydro-derivatives, which are spontaneously formed in vivo, by LC-MS/MS.

Row | t1/2 (dihydro), half-life for blood clearance | t1/2 (tetrahydro), half-life for blood clearance | Compound
1 | ~30 min | <<5 min | 2-amino-4-di-n-propylamino-6-(4-methoxyphenyl)-(R,S)-5,6,7,8-tetrahydropteridin [Compound C]
2 | ~20 min | <<5 min | Nc1nc2c(c(N3CCCCC3)n1)NC(c1ccccc1)CN2 (racemic) [Compound B, 2-amino-4-piperidino-6-phenyl-(R,S)-5,6,7,8-tetrahydropteridin]
3 | 48 min | <<5 min | CC(O)C(O)C1CNc2nc(N)nc(NCC3CCCCC3)c2N1 (stereo not drawn) [Compound A, 4-N-cyclohexylmethylamino-5,6,7,8-tetrahydrobiopterin]
